In patent US20140349948A1, “Treatment of Chronic Constipation” (Forest Laboratories Holdings Limited, priority 2009, published 2014):
Marks after values point to notes of the source that are not given here. Residues, ends and D or L forms follow the SMILES beside them.

Experiments:
[1] = test system: patients with chronic constipation; test: Chronic Constipation Trial 2, 12-week treatment period; assay type: in vivo, human
Experimental: (§1) Linaclotide Capsules from Example 4 were administered in multicenter, randomized, double-blind, placebo-controlled trials.
(§2) Trial 1 was conducted in 630 patients meeting modified Rome II criteria for chronic constipation. The trial included a two-week pretreatment baseline period and a 12-week treatment period. A diagram of the study design for Trial 2 is given in FIG. 1, which is substantially similar to Trial 1 except for the addition of a Randomized Withdrawal period in Trial 2 as described below.
The Treatment Period began with randomization and lasted for 12 weeks. Patients were randomized to treatment with 133 μg linaclotide, 266 μg linaclotide, or placebo (1:1:1), taken once daily in the morning. Patients continued to provide their daily assessments such as their daily bowel habit assessments and daily patient symptom severity assessments.
(§3) Trial 2 was conducted in 642 patients and was identical to Trial 1 except that Trial 2 also included a four-week Randomized Withdrawal Period, defined below. During the two-week pretreatment (baseline) period, 68 percent of patients in Trial 2 had no CSBMs.

[2] = test system: patients with chronic constipation; test: Trials 1 and 2 pooled; assay type: in vivo, human; conditions: for Straining, Week 1 Mean Change from Baseline / Abdominal discomfort, Week 1 Mean Change from Baseline / Bloating, Week 1 Mean Change from Baseline / Constipation severity, Week 1 Mean Change from Baseline: 5-point scale: 1 = none; for Straining, Week 1 Mean Change from Baseline: 5 = an extreme amount; for Abdominal discomfort, Week 1 Mean Change from Baseline / Bloating, Week 1 Mean Change from Baseline / Constipation severity, Week 1 Mean Change from Baseline: 5 = very severe; for Stool Consistency, Week 1 Mean Change from Baseline: 7-point scale (BSFS)
Experimental: as §1, §2, §3

[3] = Systemic linaclotide levels after oral administration; assay type: in vivo; conditions: after oral administration at therapeutic dose levels
From the text: (§4) Linaclotide is a peptide GC-C agonist that is orally administered and currently in clinical trials for treatment of irritable bowel syndrome with constipation (IBS-c) and CC.

CC = test: Phase 2b studies for CC, four-week treatment; assay type: in vivo; conditions: throughout the four-week treatment period
From the text: as §4

[4] = 266 μg, Trial 2 (n = 216), 5-point scale: 1 = none, 5 = very severe
[5] = Trial 2, 133 μg (p≦0.0001) and 266 μg (p≦0.0001)

C[C@@H]1NC(=O)[C@@H]2CCCN2C(=O)[C@H](CC(N)=O)NC(=O)[C@@H]2CSSC[C@H](N)C(=O)N[C@H]3CSSC[C@H](NC1=O)C(=O)N[C@@H]([C@@H](C)O)C(=O)NCC(=O)N[C@H](C(=O)N[C@@H](Cc1ccc(O)cc1)C(=O)O)CSSC[C@H](NC(=O)[C@H](Cc1ccc(O)cc1)NC(=O)[C@H](CCC(=O)O)NC3=O)C(=O)N2 [Linaclotide, Cys1 Cys2 Glu3 Tyr4 Cys5 Cys6 Asn7 Pro8 Ala9 Cys10 Thr11 Gly12 Cys13 Tyr14] (HELM PEPTIDE1{C.C.E.Y.C.C.N.P.A.C.T.G.C.Y}$PEPTIDE1,PEPTIDE1,1:R3-6:R3|PEPTIDE1,PEPTIDE1,2:R3-10:R3|PEPTIDE1,PEPTIDE1,5:R3-13:R3$$$V2.0)
SBM rate, Week 1 Mean Change from Baseline ([1]; 266 μg, Trial 2 (n = 216)): 3.61*** | Straining, Week 1 Mean Change from Baseline ([1]; 266 μg, Trial 2 (n = 216), 5-point scale: 1 = none, 5 = an extreme amount): −1.06*** | Abdominal discomfort, Week 1 Mean Change from Baseline [1, 4]: −0.21 | Bloating, Week 1 Mean Change from Baseline [1, 4]: −0.27* | Constipation severity, Week 1 Mean Change from Baseline [1, 4]: −0.76*** | Stool Consistency, Week 1 Mean Change from Baseline ([1]; 266 μg, Trial 2 (n = 216), 7-point scale (BSFS)): 1.81*** | 12-week CSBM overall responder rate ([1]; Trial 2, 133 μg): 21.2% | increase in average weekly CSBMs from baseline ([1]; Trial 2, 133 μg): 1.9 | increase in average weekly SBMs from baseline ([1]; Trial 2, 133 μg): 3.0 | numerical increase of 12-week CSBM overall responder rate as compared to placebo ([1]; Trial 2, 133 μg): 6.3 fold | patients reporting at least one CSBM within 24 hours of treatment ([1]; Trial 2, 133 μg): 33.2% | patients reporting at least one SBM within 24 hours of treatment ([1]; Trial 2, 133 μg): 70.0% | patients who experienced weekly CSBMs in at least nine out of 12 weeks ([1]; Trial 2, 133 μg): 21.7% | patients with increase of ≧1 from baseline in weekly CSBMs in at least nine out of 12 weeks ([1]; Trial 2, 133 μg): 39.2% | patients with increase of ≧1 from baseline in weekly CSBMs in at least six out of 12 weeks ([1]; Trial 2, 133 μg): 56.7% | 12-week CSBM overall responder rate ([1]; Trial 2, 266 μg): 19.4% | increase in average weekly CSBMs from baseline ([1]; Trial 2, 266 μg): 2.0 | increase in average weekly SBMs from baseline ([1]; Trial 2, 266 μg): 3.0 | numerical increase of 12-week CSBM overall responder rate as compared to placebo ([1]; Trial 2, 266 μg): 5.8 fold | patients reporting at least one CSBM within 24 hours of treatment ([1]; Trial 2, 266 μg): 26.9% | patients reporting at least one SBM within 24 hours of treatment ([1]; Trial 2, 266 μg): 54.6% | patients who experienced weekly CSBMs in at least nine out of 12 weeks ([1]; Trial 2, 266 μg): 19.4% | patients with increase of ≧1 from baseline in weekly CSBMs in at least nine out of 12 weeks ([1]; Trial 2, 266 μg): 37.0% | patients with increase of ≧1 from baseline in weekly CSBMs in at least six out of 12 weeks ([1]; Trial 2, 266 μg): 50.5% | PAC-QOL overall assessments, 12 week overall mean change versus placebo [1, 5]: statistically significant improvements | overall constipation severity score, 12 week overall mean change versus placebo [1, 5]: statistically significant improvements | severity of straining score, 12 week overall mean change versus placebo [1, 5]: statistically significant improvements | stool consistency score, 12 week overall mean change versus placebo [1, 5]: statistically significant improvements | bloating score, 12 week overall mean change versus placebo ([1]; Trial 2, 133 μg (p≦0.0001) and 266 μg (p≦0.01)): statistically significant improvements | abdominal discomfort score, 12 week overall mean change versus placebo ([1]; Trial 2, 133 μg (p≦0.001) and 266 μg (p≦0.01)): statistically significant improvements | abdominal discomfort in week 2 ([1]; study 2, week 2 (p<0.01)): Statistically significant improvement | CSBM rate, Week 1 Mean Change from Baseline ([2]; 133 μg, Pooled (n = 430)): 2.02** | SBM rate, Week 1 Mean Change from Baseline ([2]; 133 μg, Pooled (n = 430)): 3.96*** | Straining, Week 1 Mean Change from Baseline ([2]; 133 μg, Pooled (n = 430)): −1.02*** | Abdominal discomfort, Week 1 Mean Change from Baseline ([2]; 133 μg, Pooled (n = 430)): −0.26*** | Bloating, Week 1 Mean Change from Baseline ([2]; 133 μg, Pooled (n = 430)): −0.31*** | Constipation severity, Week 1 Mean Change from Baseline ([2]; 133 μg, Pooled (n = 430)): −0.82*** | Stool Consistency, Week 1 Mean Change from Baseline ([2]; 133 μg, Pooled (n = 430)): 1.78*** | CSBM rate, Week 1 Mean Change from Baseline ([2]; 266 μg, Pooled (n = 418)): 2.42** | SBM rate, Week 1 Mean Change from Baseline ([2]; 266 μg, Pooled (n = 418)): 4.01*** | Straining, Week 1 Mean Change from Baseline ([2]; 266 μg, Pooled (n = 418)): −1.14*** | Abdominal discomfort, Week 1 Mean Change from Baseline ([2]; 266 μg, Pooled (n = 418)): −0.26*** | Bloating, Week 1 Mean Change from Baseline ([2]; 266 μg, Pooled (n = 418)): −0.31*** | Constipation severity, Week 1 Mean Change from Baseline ([2]; 266 μg, Pooled (n = 418)): −0.85*** | Stool Consistency, Week 1 Mean Change from Baseline ([2]; 266 μg, Pooled (n = 418)): 1.87*** | Overall rates of discontinuation due to adverse events ([2]; both trial 1 and 2): 7.4% | most common adverse events ([2]; both trial 1 and 2, linaclotide-treated patients): diarrhea, flatulence, and abdominal pain | levels seen systemically [3]: no detectable levels | effect on constipation, abdominal discomfort, and bloating (CC): reduced constipation, abdominal discomfort, and bloating
